Experimental data: PMC10048804, “Coumarin-Based Compounds as Inhibitors of Tyrosinase/Tyrosine Hydroxylase: Synthesis, Kinetic Studies, and In Silico Approaches” (International Journal of Molecular Sciences, 2023)
“Also recorded” adds a separate entry of the source. Read-outs that look alike come from different tables or passages of the source.

What was measured:
[1] = tested on: cellular tyrosinase in B16F10 cells; conditions: ref [39],[40],[41]; cited from earlier work
B16F10 cells = conditions: ref [39],[40],[41]; cited from earlier work
mushroom tyrosinase [2] = conditions: ref [39],[40],[41]; cited from earlier work
mushroom tyrosinase [3] = target: T1, mushroom tyrosinase (Agaricus bisporus, UniProt C7FF04); test: Kinetic analysis of the inhibition of tyrosinase (Lineweaver-Burk plots); type: biochemical; parameters: purchased Sigma-Aldrich; conditions: L-DOPA substrate
Description: The mechanism for tyrosinase inhibition of the tested compounds was determined from Lineweaver–Burk double reciprocal plots. The plot provides a useful graphical method for analysis of the Michaelis–Menten equations used to determine the Km values for possible competitive, uncompetitive, non-competitive, and mixed mechanisms of inhibition. All Lineweaver–Burk plots can be found in the Supplementary Information. As can be easily noticed, the majority of tested compounds are characterized by the mixed mode of inhibition (Table 2). It is a type of enzyme inhibition in which the inhibitor may bind to the enzyme whether or not the enzyme has already bound to the substrate.
A series of experiments was performed to determine the inhibition kinetics of the tested compounds following the already reported method. The inhibitor concentrations for the tested compounds were 0.05 and 0.1 mM. The substrate L-DOPA concentration was between 0.1 and 0.25 mM in all kinetic studies, but for the FN-06 and FN-27 compounds, concentrations between 0.15 and 0.3 mM were used. Maximal initial velocity was determined from the initial linear portion of absorbance up to ten minutes after the addition of the enzyme. The inhibition type of the enzyme, Michaelis constant (Km), and maximal velocity (Vmax) were determined using Lineweaver–Burk plots of the inverse of velocities (1/V) versus the inverse of substrate concentration 1/[L-DOPA] mM^−1.
Target sequence in this assay (C7FF04 1-392 limits assumed): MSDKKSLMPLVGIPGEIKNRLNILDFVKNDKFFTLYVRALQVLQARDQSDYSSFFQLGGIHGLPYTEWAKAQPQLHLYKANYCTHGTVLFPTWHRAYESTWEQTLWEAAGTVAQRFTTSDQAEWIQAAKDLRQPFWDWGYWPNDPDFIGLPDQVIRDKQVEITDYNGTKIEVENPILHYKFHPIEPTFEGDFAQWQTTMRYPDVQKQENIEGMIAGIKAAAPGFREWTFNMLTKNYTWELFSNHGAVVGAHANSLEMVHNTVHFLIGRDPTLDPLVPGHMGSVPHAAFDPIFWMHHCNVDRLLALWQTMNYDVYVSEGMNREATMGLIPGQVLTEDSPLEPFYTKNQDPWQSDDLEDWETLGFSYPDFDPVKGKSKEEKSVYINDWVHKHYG

mushroom tyrosinase [4] = target: T1, mushroom tyrosinase; test: Mushroom tyrosinase inhibition assay (L-DOPA substrate, dopachrome at 475 nm); type: biochemical
Description: All compounds were tested for their inhibitory effects on mushroom tyrosinase using L-DOPA as substrate. In general, the results were compared with standard tyrosinase inhibitors, such as kojic acid and ascorbic acid. […]. The mushroom tyrosinase (Sigma-Aldrich) inhibition was performed following previously reported methods. All assays were carried out with solutions containing phosphate buffer (50 mM, pH 6.8), L-DOPA (0.17 mM), EDTA (0.022 mM), tyrosinase (50–100 units), and varying concentrations of compounds, and were performed in triplicate at room temperature. The inhibitor solutions were prepared in DMSO with an initial concentration of 1 mM. Different aliquots were added to the solution containing buffer, L-DOPA, and EDTA, the enzyme being added in the end. The formation of dopachrome was determined by monitoring the absorbance at 475 nm with a T60U spectrophotometer (PG Instruments) equipped with quartz cells of 1 cm path length. Kojic acid and ascorbic acid were used as reference inhibitors with an initial concentration of 1 mM. The IC50 values were calculated from the equation generated with an exponential fit of the experimental data. […]
Target sequence in this assay (C7FF04 2-392): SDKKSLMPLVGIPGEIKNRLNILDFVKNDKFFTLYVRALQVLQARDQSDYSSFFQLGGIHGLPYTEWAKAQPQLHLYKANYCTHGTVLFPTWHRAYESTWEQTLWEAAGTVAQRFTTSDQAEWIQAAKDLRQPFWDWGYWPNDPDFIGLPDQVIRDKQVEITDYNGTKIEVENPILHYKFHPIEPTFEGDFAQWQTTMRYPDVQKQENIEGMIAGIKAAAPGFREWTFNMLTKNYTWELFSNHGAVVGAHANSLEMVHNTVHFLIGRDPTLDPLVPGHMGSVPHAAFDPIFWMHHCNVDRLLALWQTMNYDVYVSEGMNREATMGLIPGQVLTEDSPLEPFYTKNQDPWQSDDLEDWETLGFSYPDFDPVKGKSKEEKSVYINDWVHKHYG

tyrosinase [5] = target: T2, tyrosinase (Agaricus bisporus, UniProt C7FF04); test: UV-Vis spectra of L-DOPA oxidation by tyrosinase in absence and presence of inhibitor; type: biochemical, mushroom; conditions: after 30 min, versus L-DOPA with tyrosinase
T2 construct: purchased Sigma-Aldrich
T2 sequence (C7FF04 1-392 limits assumed): as the sequence (C7FF04 1-392 limits assumed) above
Description: The remaining compound FN-40 is a competitive inhibitor, which binds to the enzyme at its active site, preventing the binding of the substrate to the enzyme. […] To observe the effect of the oxidation of L-DOPA by tyrosinase in the absence and presence of the tested compounds, the UV-Vis spectra were determined. During L-DOPA oxidation by tyrosinase, a characteristic signal at 475 nm is observed in the UV-Vis spectrum, corresponding to the formation of dopachrome.

intracellular tyrosinase = tested on: intracellular tyrosinase; parameters: method as in PMID 35063859; conditions: ref [45], cited from earlier work
production of melanin = tested on: production of melanin; parameters: method as in PMID 35063859; conditions: ref [45]; cited from earlier work
tyrosinase [6] = conditions: cited from earlier work

Inhibitory Mechanism (mushroom tyrosinase [3]; compound at 0.1 mM)	melting point [°C]	Compound	also measured
Mixed		COc1cccc2cc(C(C)=O)c(=O)oc12 [FN-07, 3. -Acetyl-8-methoxy-2H-chromen-2-one]	
Noncompetitive	157 to 159	CC(=O)c1cc2ccc(C)cc2oc1=O [MP-04, 3. -Acetyl-7-methyl-2H-chromen-2-one]	
Mixed		CC(=O)c1cc2ccccc2oc1=O [MP-05, 3. -Acetyl-2H-chromen-2-one]	
	111 to 112	CN(C)c1ccc(/C=C/C(=O)c2cc3ccccc3oc2=O)cc1 [FN-10, 3. -((E)-3-(4-(Dimethylamino)phenyl)acryloyl)-2H-chromen-2-one]	Inhibitory Mechanism (mushroom tyrosinase [3]; compound at 0.05 mM): mixed inhibitors
Competitive		CC(=O)c1cc2cc(Br)ccc2oc1=O [FN-40]	
mixed inhibitors		COc1cccc2cc(/C(C)=N/NC(N)=S)c(=O)oc12 [FN-27, (1E)-1-(1-(8-Methoxy-2-oxo-2H-chromen-3-yl)ethylidene)thiosemicarbazide]	
Mixed	226 to 229	C/C(=N\NC(N)=O)c1cc2ccc(O)cc2oc1=O [FN-17, (1E)-1-(1-(7-Hydroxy-2-oxo-2H-chromen-3-yl)ethylidene)semicarbazide]	
Mixed	240 to 242	COc1cccc2cc(/C(C)=N/NC(N)=O)c(=O)oc12 [FN-25, (1E)-1-(1-(8-Methoxy-2-oxo-2H-chromen-3-yl)ethylidene)semicarbazide]	
mixed inhibitors		CC(=O)c1cc2ccc(O)cc2oc1=O [FN-06, 3. -Acetyl-7-hydroxy-2H-chromen-2-one]	
Uncompetitive	201 to 203	CC(=O)c1cc2cc([N+](=O)[O-])ccc2oc1=O [MP-03, 3. -Acetyl-6-nitro-2H-chromen-2-one]	

Continued, compound first:

Compound	Inhibitory Mechanism (mushroom tyrosinase [3]; compound at 0.1 mM)	melting point [°C]	also measured
O=c1oc2cc(O)cc(O)c2cc1-c1ccc(Br)cc1 [Compound 3]			cellular tyrosinase activity [1]: able to inhibit; melanin production (B16F10 cells): able to inhibit; IC50 (mushroom tyrosinase [2]): 1050 ± 56 nM
O=c1oc2cc(O)cc(O)c2cc1-c1cccs1 [Compound 1]			IC50 (mushroom tyrosinase [2]): 150 ± 28 nM
COc1cccc2cc(/C(C)=N/NC(=O)c3ccncc3)c(=O)oc12 [FN-29, (13E)-N’-(1-(8-Methoxy-2-oxo-2H-chromen-3-yl)ethylidene)isonicotinohydrazide]	Mixed	202 to 206	solubility in the tyrosinase assay (mushroom tyrosinase [4]; in words): not soluble
C/C(=N\NC(N)=S)c1cc2ccc(O)cc2oc1=O [FN-19, (1E)-1-(1-(7-Hydroxy-2-oxo-2H-chromen-3-yl)ethylidene)thiosemicarbazide]	mixed inhibitor; also recorded: mixed mode		signal intensity at 475 nm (dopachrome formation) (tyrosinase [5]): significant reduction; also recorded: significantly reduce
CC(C)=CC(=O)O[C@H]1Cc2cc3ccc(=O)oc3cc2OC1(C)C [Compound 7, decursin]			%Tyrosine inh. (intracellular tyrosinase; at 30 μM): 59.8 ± 0.6%; intracellular activity of tyrosinase (intracellular tyrosinase): decreases; production of melanin (production of melanin): reduces
O=c1oc2cc(O)cc(O)c2cc1-c1cc(Br)cs1 [Compound 2]			cellular tyrosinase activity [1]: able to inhibit; melanin production (B16F10 cells): able to inhibit; IC50 (mushroom tyrosinase [2]): 380 ± 84 nM
CC(C)=CCOc1c2occc2cc2ccc(=O)oc12 [Compound 6, marmelosin]			IC50 (tyrosinase [6]; ref [44]): 20300 ± 1260 nM
(E)-N’-(4-(dimethylamino)benzylidene)-2-methylene-2H-chromene-3-carbohydrazide [FN-11]	Mixed		IC50 (mushroom tyrosinase [4]; mushroom tyrosinase, L-DOPA 0.17 mM as substrate, pH 6.8, triplicate, room temperature): 159000 nM
COc1cc(C2CC(c3cc4ccccc4oc3=O)=NN2c2nc(-c3ccc(Br)cc3)cs2)ccc1OCc1ccccc1 (stereo not shown) [Compound 5]			IC50 (tyrosinase [6]; ref [43]): 4.58 ± 0.22 nM
